Data as given in US6809112B2, “Method of treating sexual disturbances” (priority 1999, dated 2004).

What was measured:
Assay type in all cases: in vivo, human
[1] = system: patient with Female Orgasmic Disorder; assay: Treatment of Female Orgasmic Disorder (Examples D, L); conditions: 1 mg/dose about 0.5 hr before sexual activity; examined after two months; patient report
Text: A 50 kg, patient who married three months before presenting for treatment. […] They were not sexually active prior to marriage. They report that their spouse had multiple premarital partners and that they report all their past partners had orgasms. The patient is upset by their inability to have orgasms and feels they are an poor spouse. On questioning they report that they are “too fat” although their weight is appropriate for their height. […] They currently take no prescription drugs other than low dose birth control pills. […] The patient is diagnosed as having Female Orgasmic Disorder that is situational due to psychological factors (Diagnostic and Statistical Manual of Mental Disorders, Fourth Edition, 1994). (5R)-(methylamino)-5,6-dihydro-4H-imidazo[4,5,1-ij]quinolin-2(1H)-one (Z)-2-butenedioate (1:1) is prescribed at 1 mg/dose to be taken about 0.5 hr before the patient intends to engage in sexual activity. The patient is instructed that they may use the drug on a daily basis, if this is the intended frequency of sexual activity. The patient is examined after two months. They report that they use the drug prior to intercourse. […] It is recommended that the patient continue to use the drug for an additional six months, then stop taking the drug for a period of two weeks to determine whether they might now be able to have orgasms in the absence of drug therapy.

[2] = system: patient with Female Sexual Arousal Disorder; assay: Treatment of Female Sexual Arousal Disorder in a patient (Examples B, J); conditions: 3 mg/dose 0.5-1 hr before sexual activity; examined after one month; patient report
Text: A 64 kg, patient is complaining of vaginal dryness and mild discomfort during sexual intercourse. The patient recently began a relationship with a person. Their partner complained of their vaginal dryness and poor vaginal expansion during sexual intercourse. Their partner has made several comments about this during the previous two months and the patient is concerned that their partner is dissatisfied with their lack of sexual responsiveness and may end the relationship. The patient reports that they desire to continue the relationship. The patient has had several previous sexual relationships. They report that vaginal dryness and some discomfort with vaginal intercourse has occurred during their past sexual relationships. […] They find their current partner attractive and sexual desirable. […] During these episodes they usually have an orgasm. Lubrication is not a problem when they masturbate. […] They currently take no prescription drugs other than low dose birth control pills. […] The patient is diagnosed as having Female Sexual Arousal Disorder that is situational due to psychological factors (Diagnostic and Statistical Manual of Mental Disorders, Fourth Edition, 1994). (5R)-(methylamino)-5,6-dihydro-4H-imidazo[4,5,1-ij]quinolin-2(1H)-one (Z)-2-butenedioate (1:1) is prescribed at 3 mg/dose to be taken 0.5-1 hr before the patient intends to engage in sexual activity. The patient is instructed that they may use the drug on a daily basis, if this is the intended frequency of sexual activity. The patient is examined after one month. They report that they use the drug prior to intercourse. […] The patient is instructed to continue using the drug.

[3] = system: patient with Hypoactive Sexual Desire Disorder; assay: Treatment of Hypoactive Sexual Desire Disorder in a patient (Examples A, I); conditions: 1 mg/dose 0.5 hr before sexual activity, examined after one month, patient report
Text: A 44 kg, patient is referred by their psychologist for evaluation for and medical treatment of hypoactive sexual desire disorder. The patient recently began to co-habitate with a person. They consulted a clinical psychologist because of distress over frequent arguments with their partner. These arguments concern their frustration that their partner is unwilling to marry them and the partner's accusations that they are sexually unresponsive and “boring in bed.” The patient reports that although they desire to continue the relationship, they have little or no interest in sexual activity with this partner. The partner initiates all sexual activity in the relationship and they comply so that the relationship will continue. They state that their partner desires sexual intercourse about once per day. Occasionally, the couple's frequency of sexual intercourse is as much as twice per day. […] They currently take no prescription drugs other than low dose birth control pills. […] The patient is diagnosed as having Hypoactive Sexual Desire Disorder of acquired onset due to situational factor (Diagnostic and Statistical Manual of Mental Disorders, Fourth Edition, 1994). (5R)-(methylamino)-5,6-dihydro-4H-imidazo[4,5,1-ij]quinolin-2(1H)-one (Z)-2-butenedioate (1:1) is prescribed at 1 mg/dose to be taken 0.5 hr before the patient intends to engage in sexual activity. The patient is instructed that they may use the drug on a daily basis, if they and their partner desire sexual activity at this frequency. They are also instructed that on occasions they may use the drug twice in a single day if this is the intended frequency of intercourse. The patient is examined after one month. They report that they use the drug once, and occasionally twice, per day. […] They also report that they and their partner argue less frequently and that their partner no longer accuses them of being disinterested in sexual relations. The patient is instructed to continue using the drug.

[4] = system: patient with Male Erectile Disorder; assay: Treatment of Male Erectile Disorder (Examples C, K); conditions: 3 mg/dose 0.5 hr before sexual activity; examined after one month; patient report
Text: A 75 kg, patient has been married for 20 years. They present complaining that for the past six months they have had difficulty maintaining an erection until completion of sexual intercourse. They develop an adequate erection at the beginning of sexual activity but detumescence occurs when they attempt penetration. Their spouse is their only current sexual partner. They report that their spouse is patient and understanding of their problem but that they are embarrassed, feels that they are a failure, and is growing progressively more angry and sad about their inability to maintain an erection. They masturbate approximately twice each month. During masturbation, they are usually able to maintain an erection until they ejaculate. […] The only remarkable findings were a supine diastolic blood pressure 94 mm mercury and a total plasma cholesterol level of 230 mg/dl. They were instructed to follow the American Heart Association dietary recommendations and to reduce their body weight by 5 kg. They currently take no prescription drugs. […] The patient is diagnosed as having Male Erectile Disorder that is acquired and situational. The etiology is most likely due to psychological factors, although combined factors, e.g., mild hypertension or atherosclerosis, may contribute (Diagnostic and Statistical Manual of Mental Disorders, Fourth Edition, 1994). (5R)-(methylamino)-5,6-dihydro-4H-imidazo[4,5,1-ij]quinolin-2(1H)-one (Z)-2-butenedioate (1:1) is prescribed at 3 mg/dose to be taken 0.5 hr before the patient intends to engage in sexual activity. The patient is instructed that they may use the drug on a daily basis, if this is the intended frequency of sexual activity. The patient is examined after one month. They report that they use the drug prior to intercourse. […] The patient is instructed to continue using the drug.

Structure (SMILES)	treatment effect (sexual relationship) [1]	treatment effect (sexual relationship) [2]	treatment effect (sexual relationship) [3]	treatment effect (quality of sexual relationship) [4]	orgasm during sexual intercourse [1]	pain during initiation of vaginal penetration [2]	vaginal dryness [2]	frequency of sexual fantasies ([3]; once, occasionally twice, per day)	initiation of sexual activity [3]	ejaculation [4]	maintenance of erection [4]
CN[C@@H]1Cc2cccc3[nH]c(=S)n(c23)C1 [(5R)-5-(Methylamino)-5,6-dihydro-4H-imidazo[4,5,1-ij]quinoline-2(1H)-thione]	same positive treatment effect	same positive treatment effect	same positive treatment effect	same positive treatment effect							
CN[C@@H]1Cc2cccc3[nH]c(=O)n(c23)C1.O=C(O)/C=C\C(=O)O [(5R)-(methylamino)-5,6-dihydro-4H-imidazo[4,5,1-ij]quinolin-2(1H)-one (Z)-2-butenedioate (1:1)]	enjoys an improved sexual relationship with their partner	enjoys an improved sexual relationship with their partner	enjoys an improved sexual relationship with their partner	markedly improved	has an orgasm during sexual intercourse on most occasions	no longer has pain	no longer a problem	3-4 occasions per week	occasionally initiates sexual activity with their partner	usually experiences intra-vaginal ejaculation	maintains an erection for a satisfactory period after vaginal penetration in almost every attempt at intercourse
